Test [1] has as its target human TLR8 (Homo sapiens (Human), UniProt Q9NR97). The experiment in a line: TLR8 inhibition reporter assay (HEK-Blue SEAP reporter, R848 stimulation).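 Note: SEAP driven by IFN-β minimal promoter with NF-κB and AP-1 sites, 22 h incubation, compounds 0.05 nM–50 µM, inhibition scaled between agonist plus DMSO and reference inhibitor wells.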 On the technique in general: In a reporter assay the amount or activity of a reporter protein is the signal.
For test [2], the target named is human TLR9 (Homo sapiens (Human), UniProt Q9NR96). Kind of test: TLR9 inhibition reporter assay (HEK-Blue SEAP reporter, ODN2006 stimulation).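 Note: SEAP reporter under IFN-β minimal promoter with five NF-κB and AP-1 sites, 22 h incubation, compounds 0.05 nM–50 µM, inhibition relative to agonist plus DMSO versus known inhibitor.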
The target of test [3] is human TLR7 (Homo sapiens (Human), UniProt Q9NYK1). Kind of test: TLR7 inhibition reporter assay (HEK-Blue SEAP reporter, gardiquimod stimulation). Particulars: HEK-Blue cells overexpressing human TLR7, gardiquimod 7.5 μM. Format: cell-based.
Setting [4] is: read-out: TLR8 IC50, HEK-Blue cells overexpressing human TLR8, R848 15.9 μM, SEAP reporter.
Where [5] appears, read: read-out: TLR9 IC50, HEK-Blue cells overexpressing human TLR9, ODN2006 5 nM, SEAP reporter.

Counter-ions that a name gives are not always drawn. Like-named read-outs stand apart in the source and are kept apart here. Bounds are passed on as bounds.

Our source for the IC50 values is patent US11420973B2, “Amide substituted indole compounds useful as TLR inhibitors” (BRISTOL-MYERS SQUIBB COMPANY, priority 2017, dated 2022).

Sequence of human TLR8 (Q9NR97 27-1041): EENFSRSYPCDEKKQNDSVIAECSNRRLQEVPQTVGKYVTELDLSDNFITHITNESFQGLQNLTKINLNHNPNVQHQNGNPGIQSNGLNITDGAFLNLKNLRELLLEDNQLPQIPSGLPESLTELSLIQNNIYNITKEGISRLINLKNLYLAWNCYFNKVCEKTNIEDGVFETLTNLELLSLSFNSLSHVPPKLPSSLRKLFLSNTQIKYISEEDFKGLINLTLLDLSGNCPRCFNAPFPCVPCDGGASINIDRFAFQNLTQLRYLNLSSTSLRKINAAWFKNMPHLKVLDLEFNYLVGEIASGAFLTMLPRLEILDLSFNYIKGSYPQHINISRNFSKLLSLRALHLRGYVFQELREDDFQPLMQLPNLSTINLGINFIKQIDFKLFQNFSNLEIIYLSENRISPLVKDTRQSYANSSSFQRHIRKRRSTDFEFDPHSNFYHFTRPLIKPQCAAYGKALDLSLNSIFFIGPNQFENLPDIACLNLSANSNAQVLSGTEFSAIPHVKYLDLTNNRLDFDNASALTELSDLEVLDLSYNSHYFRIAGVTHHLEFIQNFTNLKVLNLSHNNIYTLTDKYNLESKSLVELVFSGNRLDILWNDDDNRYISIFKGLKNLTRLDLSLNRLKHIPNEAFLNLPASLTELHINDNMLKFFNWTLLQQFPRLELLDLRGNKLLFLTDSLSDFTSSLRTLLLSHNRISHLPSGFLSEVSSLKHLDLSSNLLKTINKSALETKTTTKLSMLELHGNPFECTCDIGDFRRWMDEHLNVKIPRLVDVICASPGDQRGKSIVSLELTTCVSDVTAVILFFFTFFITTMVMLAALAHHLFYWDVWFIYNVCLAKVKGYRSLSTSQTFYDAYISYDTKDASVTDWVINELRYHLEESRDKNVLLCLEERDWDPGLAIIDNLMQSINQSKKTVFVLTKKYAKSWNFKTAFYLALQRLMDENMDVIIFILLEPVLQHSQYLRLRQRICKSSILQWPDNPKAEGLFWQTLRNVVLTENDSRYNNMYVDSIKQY
Sequence of human TLR7 (Q9NYK1 27-1049): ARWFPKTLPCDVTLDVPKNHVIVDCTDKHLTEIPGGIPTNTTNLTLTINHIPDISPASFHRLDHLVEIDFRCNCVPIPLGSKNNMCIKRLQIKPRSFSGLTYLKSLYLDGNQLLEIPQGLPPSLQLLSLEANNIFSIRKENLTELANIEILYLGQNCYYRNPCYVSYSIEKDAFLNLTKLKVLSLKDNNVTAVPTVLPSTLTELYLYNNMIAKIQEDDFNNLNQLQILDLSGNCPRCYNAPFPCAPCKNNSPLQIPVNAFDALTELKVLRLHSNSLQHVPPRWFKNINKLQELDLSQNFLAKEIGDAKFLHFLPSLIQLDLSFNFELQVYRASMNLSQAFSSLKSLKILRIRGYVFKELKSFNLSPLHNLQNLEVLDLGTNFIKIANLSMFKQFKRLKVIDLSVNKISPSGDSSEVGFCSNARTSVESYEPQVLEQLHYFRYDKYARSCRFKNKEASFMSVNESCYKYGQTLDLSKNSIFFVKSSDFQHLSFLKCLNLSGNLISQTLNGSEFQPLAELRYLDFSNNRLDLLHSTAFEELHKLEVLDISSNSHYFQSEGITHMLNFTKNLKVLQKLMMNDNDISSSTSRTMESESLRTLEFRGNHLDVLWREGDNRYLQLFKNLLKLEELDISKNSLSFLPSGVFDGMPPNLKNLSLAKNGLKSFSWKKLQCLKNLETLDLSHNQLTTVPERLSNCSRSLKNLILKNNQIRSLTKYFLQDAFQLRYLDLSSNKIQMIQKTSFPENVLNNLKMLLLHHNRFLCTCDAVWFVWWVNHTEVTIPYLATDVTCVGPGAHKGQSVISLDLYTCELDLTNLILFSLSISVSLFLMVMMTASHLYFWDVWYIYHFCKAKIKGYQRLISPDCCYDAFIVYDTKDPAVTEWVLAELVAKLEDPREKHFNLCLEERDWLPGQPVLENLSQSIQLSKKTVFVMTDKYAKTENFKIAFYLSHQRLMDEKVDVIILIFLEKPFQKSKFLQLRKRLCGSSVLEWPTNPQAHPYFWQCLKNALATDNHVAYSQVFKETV
Sequence of human TLR9 (Q9NR96 26-1032): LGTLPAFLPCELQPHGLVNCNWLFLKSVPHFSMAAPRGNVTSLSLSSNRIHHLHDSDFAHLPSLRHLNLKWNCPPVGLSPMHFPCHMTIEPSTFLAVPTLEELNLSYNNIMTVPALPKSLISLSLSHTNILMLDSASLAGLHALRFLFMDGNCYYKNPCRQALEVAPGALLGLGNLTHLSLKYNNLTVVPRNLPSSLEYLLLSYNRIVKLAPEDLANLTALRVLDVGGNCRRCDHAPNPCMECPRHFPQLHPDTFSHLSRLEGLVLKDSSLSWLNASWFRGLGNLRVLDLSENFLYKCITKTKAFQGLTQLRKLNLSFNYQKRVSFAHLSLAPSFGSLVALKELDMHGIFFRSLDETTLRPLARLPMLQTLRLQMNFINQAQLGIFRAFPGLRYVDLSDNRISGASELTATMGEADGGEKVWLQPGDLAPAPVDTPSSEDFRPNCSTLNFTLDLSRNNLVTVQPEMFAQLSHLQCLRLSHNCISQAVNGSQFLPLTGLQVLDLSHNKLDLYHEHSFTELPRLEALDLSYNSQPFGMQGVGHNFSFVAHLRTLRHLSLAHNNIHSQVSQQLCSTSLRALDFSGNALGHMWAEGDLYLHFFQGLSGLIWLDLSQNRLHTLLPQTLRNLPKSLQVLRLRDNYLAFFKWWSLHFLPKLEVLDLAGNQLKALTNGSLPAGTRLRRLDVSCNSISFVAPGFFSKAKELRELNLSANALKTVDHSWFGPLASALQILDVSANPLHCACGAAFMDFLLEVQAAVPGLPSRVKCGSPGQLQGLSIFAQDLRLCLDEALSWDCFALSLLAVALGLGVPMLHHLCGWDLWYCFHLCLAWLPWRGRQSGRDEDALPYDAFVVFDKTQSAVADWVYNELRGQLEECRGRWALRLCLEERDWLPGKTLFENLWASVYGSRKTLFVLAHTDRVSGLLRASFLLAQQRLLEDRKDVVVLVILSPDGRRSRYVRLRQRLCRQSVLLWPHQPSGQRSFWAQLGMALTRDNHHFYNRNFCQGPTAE

For the compound `CCc1c(-c2ccc(OC)c(OC)c2)[nH]c2ccc(C(=O)NCCC(C)(C)NS(C)(=O)=O)cc12` [Example 71, 2-(3,4-dimethoxyphenyl)-3-ethyl-N-(3-methyl-3-(methylsulfonamido)butyl)-1H-indole-5-carboxamide], the IC50 (in general, the concentration needed to halve the response being measured) is 439 nM in test [1] (setting [4]), more than 50000 nM in test [2] (setting [5]) and 1630 nM in test [3].
Take `CCc1c(-c2ccc(OC)c(OC)c2)[nH]c2ccc(C(=O)NCC(C)(C)CO)cc12` [Example 72, 2-(3,4-dimethoxyphenyl)-3-ethyl-N-(3-hydroxy-2,2-dimethylpropyl)-1H-indole-5-carboxamide]: the IC50 in test [1] (setting [4]) is 408 nM; in test [2] (setting [5]) it was more than 50000 nM; in test [3] it was 579 nM.
Turning to `CCc1c(-c2ccc(OC)c(OC)c2)[nH]c2ccc(C(=O)N(CC)CCN(C)C)cc12` [Example 73, 2-(3,4-dimethoxyphenyl)-N-(2-(dimethylamino)ethyl)-N,3-diethyl-1H-indole-5-carboxamide], the IC50 in test [1] (setting [4]) worked out at 4 nM; in test [2] (setting [5]) it was 4340 nM; in test [3], 25 nM.
As to `CCc1c(-c2ccc(OC)c(OC)c2)[nH]c2ccc(C(=O)N(C)CCCN(C)C)cc12` [Example 74, 2-(3,4-dimethoxyphenyl)-N-(3-(dimethylamino)propyl)-3-ethyl-N-methyl-1H-indole-5-carboxamide], the IC50 in test [1] (setting [4]) was 16 nM; in test [2] (setting [5]), 5880 nM; in test [3], 156 nM.
In the case of `CCc1c(-c2ccc(OC)c(OC)c2)[nH]c2ccc(C(=O)NCCCN(C)C)cc12` [Example 75, 2-(3,4-dimethoxyphenyl)-N-(3-(dimethylamino)propyl)-3-ethyl-1H-indole-5-carboxamide], the IC50 in test [1] (setting [4]) amounted to 7.6 nM; in test [2] (setting [5]), 250 nM; in test [3] it was 124 nM.
On the same counts, the results for `CCc1c(-c2ccc(OC)c(OC)c2)[nH]c2ccc(C(=O)N(C)CCN(C)C)cc12` [Example 76, 2-(3,4-dimethoxyphenyl)-N-(2-(dimethylamino)ethyl)-3-ethyl-N-methyl-1H-indole-5-carboxamide] are 3.9 nM, 4890 nM and 56 nM.
Take `CCc1c(-c2ccc(OC)c(OC)c2)[nH]c2ccc(C(=O)N(CCOC)CCOC)cc12` [Example 77, 2-(3,4-dimethoxyphenyl)-3-ethyl-N,N-bis(2-methoxyethyl)-1H-indole-5-carboxamide]: the IC50 was determined as 480 nM in test [1] (setting [4]), 40300 nM in test [2] (setting [5]) and 714 nM in test [3].
As for `CCc1c(-c2ccc(OC)c(OC)c2)[nH]c2ccc(C(=O)N3CC4CNCC4C3)cc12` (stereo not drawn) [Example 79, (2-(3,4-dimethoxyphenyl)-3-ethyl-1H-indol-5-yl)(hexahydropyrrolo[3,4-c]pyrrol-2(1H)-yl)methanone], the figures for the IC50 in test [1] (setting [4]), in test [2] (setting [5]) and in test [3] were 124 nM, 1050 nM and 296 nM, respectively.
As to `CCc1c(-c2ccc(OC)c(OC)c2)[nH]c2ccc(C(=O)N3CCN(C4CCN(C(C)C)CC4)CC3)cc12` [Example 80, (2-(3,4-dimethoxyphenyl)-3-ethyl-1H-indol-5-yl)(4-(I-isopropylpiperidin-4-yl)piperazin-1-yl) methanone], the IC50 in test [1] (setting [4]) came to 2.9 nM; in test [2] (setting [5]), 836 nM; in test [3] it was 177 nM.
`CCc1c(-c2ccc(OC)c(OC)c2)[nH]c2ccc(C(=O)N3CC4CN(C(C)C)CC4C3)cc12` (stereo not drawn) [Example 81, (2-(3,4-dimethoxyphenyl)-3-ethyl-1H-indol-5-yl)(5-isopropylhexahydropyrrolo[3,4-c]pyrrol-2(1H)-yl)methanone]: the IC50 was 87 nM in test [1] (setting [4]), 1920 nM in test [2] (setting [5]) and 418 nM in test [3].
In the case of `CCc1c(-c2ccc(OC)c(OC)c2)[nH]c2ccc(C(=O)N3CC4CN(CC(=O)NC)CC4C3)cc12` (stereo not drawn) [Example 82, 2-(5-(2-(3,4-dimethoxyphenyl)-3-ethyl-1H-indole-5-carbonyl)hexahydropyrrolo[3,4-c]pyrrol-2(1H)-yl)-N-methylacetamide], the IC50 in test [1] (setting [4]) is 446 nM; in test [2] (setting [5]), 21900 nM; in test [3], 515 nM.
As to `CCc1c(-c2ccnc3[nH]ccc23)[nH]c2ccc(C(=O)N(CC)CCN(C)C)cc12` [Example 83, N-(2-(dimethylamino)ethyl)-N,3-diethyl-2-(1H-pyrrolo[2,3-b]pyridin-4-yl)-1H-indole-5-carboxamide], the IC50 in test [1] (setting [4]) was 0.5 nM; in test [2] (setting [5]) it was 2350 nM; in test [3], 16 nM.
As for `CCc1c(-c2ccnc(C)c2)[nH]c2ccc(C(=O)N(CC)CCN(C)C)cc12` [Example 84, N-(2-(dimethylamino)ethyl)-N,3-diethyl-2-(2-methylpyridin-4-yl)-1H-indole-5-carboxamide], the results for the IC50 in test [1] (setting [4]), in test [2] (setting [5]) and in test [3] were 2.1 nM, 2520 nM and 49 nM, respectively.
For `CCc1c(-c2ccnc(C)c2)[nH]c2ccc(C(=O)N3CC4CNCC4C3)cc12` (stereo not drawn) [Example 85, (3-ethyl-2-(2-methylpyridin-4-yl)-1H-indol-5-yl)(hexahydropyrrolo[3,4-c]pyrrol-2(1H)-yl)methanone], the values for the IC50 in test [1] (setting [4]), in test [2] (setting [5]) and in test [3] were 160 nM, 386 nM and 776 nM, respectively.
Turning to `CCc1c(-c2ccnc(C)c2)[nH]c2ccc(C(=O)N3CC4CN(C(C)C)CC4C3)cc12` (stereo not drawn) [Example 86, (3-ethyl-2-(2-methylpyridin-4-yl)-1H-indol-5-yl)(5-isopropylhexahydropyrrolo[3,4c]pyrrol-2(1H)-yl)methanone], the IC50 in test [1] (setting [4]) came out at 28 nM; in test [2] (setting [5]) it was 1570 nM; in test [3], 469 nM.
With `CC(C)c1c(-c2ccnc(N)c2)[nH]c2ccc(C(=O)NC3CCC(N(C)C)CC3)cc12` (stereo not drawn) [Example 87, 2-(2-aminopyridin-4-yl)-N-(4-(dimethylamino)cyclohexyl)-3-isopropyl-1H-indole-5-carboxamide], the IC50 in test [1] (setting [4]) is 27 nM; in test [2] (setting [5]), 438 nM; in test [3] it was 1050 nM.
Turning to `COc1ccc(-c2[nH]c3ccc(C(=O)N4CC5CNCC5C4)cc3c2CC(F)(F)F)cc1OC` (stereo not drawn) [Example 88, (2-(3,4-dimethoxyphenyl)-3-(2,2,2-trifluoroethyl)-1H-indol-5-yl)(hexahydropyrrolo[3,4-c]pyrrol-2(1H)-yl)methanone hydrochloride], the values for the IC50 in test [1], in test [2] and in test [3] were 278 nM, 593 nM and 401 nM, respectively.
With `COc1ccc(-c2[nH]c3ccc(C(=O)N4CC5CN(C(=O)CN(C)C)CC5C4)cc3c2CC(F)(F)F)cc1OC` (stereo not drawn) [Example 89, 1-(5-(2-(3,4-dimethoxyphenyl)-3-(2,2,2-trifluoroethyl)-1H-indole-5-carbonyl)hexahydropyrrolo[3,4-c]pyrrol-2(1H)-yl)-2-(dimethylamino)ethan-1-one], the IC50 in test [1] (setting [4]) came to 217 nM; in test [2] (setting [5]), 5860 nM; in test [3] it was 914 nM.
On the same counts, the results for `COc1ccc(-c2[nH]c3ccc(C(=O)N4CC5CN(CC(=O)N(C)C)CC5C4)cc3c2CC(F)(F)F)cc1OC` (stereo not drawn) [Example 90, 2-(5-(2-(3,4-dimethoxyphenyl)-3-(2,2,2-trifluoroethyl)-1H-indole-5-carbonyl)hexahydropyrrolo[3,4-c]pyrrol-2(1H)-yl)-N,N-dimethylacetamide] are 344 nM, 4050 nM and 866 nM.
Regarding `Cc1cc(-c2[nH]c3ccc(C(=O)NC4CCN(C(C)C)CC4)cc3c2C(C)C)cc(C)n1` [Example 91, 2-(2,6-dimethylpyridin-4-yl)-3-isopropyl-N-(1-isopropylpiperidin-4-yl)-1H-indole-5-carboxamide], the IC50 is 2.1 nM in test [1] (setting [4]), 670 nM in test [2] (setting [5]) and 9.2 nM in test [3].
The like results for `Cc1cc(-c2[nH]c3ccc(C(=O)N4CCCN(C)CC4)cc3c2C(C)C)cc(C)n1` [Example 92, (2-(2,6-dimethylpyridin-4-yl)-3-isopropyl-1H-indol-5-yl)(4-methyl-1,4-diazepan-1-yl)methanone] were, in that order, 3.2 nM, 2470 nM and 32 nM.
The like results for `CCN(CCN(C)C)C(=O)c1ccc2[nH]c(-c3cc(C)nc(C)c3)c(C(C)C)c2c1` [Example 93, N-(2-(dimethylamino)ethyl)-2-(2,6-dimethylpyridin-4-yl)-N-ethyl-3-isopropyl-1H-indole-5-carboxamide] were, in that order, 1.4 nM, 594 nM and 2.9 nM.
`Cc1cc(-c2[nH]c3ccc(C(=O)N(C)C)cc3c2C(C)C)cc(C)n1` [Example 94, 2-(2,6-dimethylpyridin-4-yl)-3-isopropyl-N,N-dimethyl-1H-indole-5-carboxamide]: the IC50 in test [1] (setting [4]) is 23 nM; in test [2] (setting [5]) it was more than 50000 nM; in test [3], 18 nM.
With `Cc1cc(-c2[nH]c3ccc(C(=O)NCCCN(C)C)cc3c2C(C)C)cc(C)n1` [Example 95, N-(3-(dimethylamino)propyl)-2-(2,6-dimethylpyridin-4-yl)-3-isopropyl-1H-indole-5-carboxamide], the IC50 was 3.6 nM in test [1] (setting [4]), 516 nM in test [2] (setting [5]) and 50 nM in test [3].
With `Cc1cc(-c2[nH]c3ccc(C(=O)NCCN(C)C)cc3c2C(C)C)cc(C)n1` [Example 96, N-(2-(dimethylamino)ethyl)-2-(2,6-dimethylpyridin-4-yl)-3-isopropyl-1H-indole-5-carboxamide], the IC50 in test [1] (setting [4]) was found to be 7.3 nM; in test [2] (setting [5]) it was 1500 nM; in test [3] it was 75 nM.
In the case of `CNC(=O)c1ccc2[nH]c(-c3cc(C)nc(C)c3)c(C(C)C)c2c1` [Example 97, 2-(2,6-dimethylpyridin-4-1)-3-isopropyl-N-methyl-1H-indole-5-carboxamide], the IC50 is 30 nM in test [1] (setting [4]), more than 50000 nM in test [2] (setting [5]) and 45 nM in test [3].
